Reference: ChEMBL document CHEMBL2203268, “Resveratrol as a kcat type inhibitor for tyrosinase: potentiated melanogenesis inhibitor” (Bioorg Med Chem, 2012)
One block for each molecule: values may come before it. The source made the active and inactive calls. The calls are words filed in the database; no cut-off is given here.

Experiments:
B16-F10 [1] = assay: Cytotoxicity against mouse B16F10 cells assessed as suppression of cell viability at 12.5 to 200 uM after 72 hrs; assay type: cell-based; conditions: b16-f10, 72 h
B16-F10 [2] = assay: Antimelanogenic activity in mouse assessed as cellular melanin content B16F10 cells after 72 hrs by spectrophotometric analysis; assay type: functional, cell-based
[3] = molecular target: T1, Tyrosinase (Agaricus bisporus) (UniProt O42713); assay: Inhibition of mushroom tyrosinase assessed as L-DOPA oxidation at 100 uM incubated 30 mins prior to substrate addition measured after 60 mins by UV-vis spectrophotometric analysis
T1 sequence (whole entry): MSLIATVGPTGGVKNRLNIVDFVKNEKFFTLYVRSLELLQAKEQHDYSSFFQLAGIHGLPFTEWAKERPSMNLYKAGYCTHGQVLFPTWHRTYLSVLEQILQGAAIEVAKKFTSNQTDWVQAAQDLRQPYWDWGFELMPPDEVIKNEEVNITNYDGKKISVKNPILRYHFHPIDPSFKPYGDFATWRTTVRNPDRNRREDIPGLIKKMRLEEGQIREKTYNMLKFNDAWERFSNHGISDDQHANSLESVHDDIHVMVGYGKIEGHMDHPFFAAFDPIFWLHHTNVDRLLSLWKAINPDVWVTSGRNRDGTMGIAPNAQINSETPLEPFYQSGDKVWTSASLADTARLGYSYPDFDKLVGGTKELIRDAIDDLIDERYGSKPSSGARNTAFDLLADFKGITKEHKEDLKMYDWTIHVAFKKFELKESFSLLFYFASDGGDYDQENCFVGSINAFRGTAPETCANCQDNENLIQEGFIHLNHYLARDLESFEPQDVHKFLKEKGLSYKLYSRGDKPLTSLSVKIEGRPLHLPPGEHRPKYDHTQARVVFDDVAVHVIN

[4] = molecular target: T1, Tyrosinase (Agaricus bisporus); assay: Inhibition of mushroom tyrosinase-mediated L-tyrosine oxidation after 60 mins by HPLC analysis
B16-F10 [5] = assay: Antimelanogenic activity in mouse assessed as cellular melanin content B16F10 cells at 200 uM after 72 hrs spectrophotometric analysis; assay type: functional, cell-based
B16-F10 [6] = assay: Cytotoxicity against mouse B16F10 cells assessed as suppression of cell viability at 200 uM after 72 hrs; assay type: cell-based; conditions: b16-f10, 72 h
B16-F10 [7] = assay: Cytotoxicity against mouse B16F10 cells assessed as suppression of cell viability after 72 hrs; assay type: cell-based
[8] = molecular target: T1, Tyrosinase (Agaricus bisporus); assay: Inhibition of mushroom tyrosinase-mediated L-DOPA oxidation assessed as recovery of enzymatic activity at 100 uM preincubated for 30 mins by HPLC analysis in the presence of 200 uM of L-cysteine
[9] = molecular target: T1, Tyrosinase (Agaricus bisporus); assay: Inhibition of mushroom tyrosinase-mediated L-DOPA oxidation assessed as decrease in dopachrome formation at 100 uM preincubated for 30 mins by HPLC analysis
[10] = molecular target: T1, Tyrosinase (Agaricus bisporus); assay: Inhibition of mushroom tyrosinase-mediated oxygen consumption at 100 uM using L-DOPA substrate incubated 30 mins prior to substrate addition measured after 60 mins
[11] = molecular target: T1, Tyrosinase (Agaricus bisporus); assay: Inhibition of mushroom tyrosinase-mediated L-DOPA oxidation assessed as decrease in dopachrome formation at 100 uM incubated 30 mins prior to substrate addition measured after 60 mins by UV-vis spectrophotometric analysis
[12] = molecular target: T1, Tyrosinase (Agaricus bisporus); assay: Inhibition of mushroom tyrosinase-mediated oxygen consumption at 100 uM using L-tyrosine substrate incubated 30 mins prior to substrate addition measured after 60 mins
[13] = molecular target: T1, Tyrosinase (Agaricus bisporus); assay: Inhibition of mushroom tyrosinase assessed as L-tyrosine oxidation at 100 uM incubated 30 mins prior to substrate addition measured after 60 mins by UV-vis spectrophotometric analysis
[14] = molecular target: T1, Tyrosinase (Agaricus bisporus); assay: Inhibition of mushroom tyrosinase assessed as L-DOPA oxidation HPLC analysis
[15] = molecular target: T1, Tyrosinase (Agaricus bisporus); assay: Inhibition of mushroom tyrosinase-mediated oxygen consumption using L-DOPA substrate at 100 uM after 30 mins
[16] = molecular target: T1, Tyrosinase (Agaricus bisporus); assay: Activation of mushroom tyrosinase assessed as L-DOPA oxidation at 100 uM after 30 mins by UV-vis spectrophotometric analysis
[17] = molecular target: T1, Tyrosinase (Agaricus bisporus); assay: Inhibition of mushroom tyrosinase-mediated L-DOPA oxidation at 100 uM after 30 mins by UV-vis spectrophotometric analysis
[18] = molecular target: T1, Tyrosinase (Agaricus bisporus); assay: Inhibition of mushroom tyrosinase-mediated L-tyrosine oxidation assessed as decrease in dopachrome formation at 100 uM after 60 mins by UV-vis spectrophotometric analysis
[19] = Drug metabolism assessed as oxidation of the compound at 100 uM after 10 mins by UV-vis spectrophotometric analysis in the presence of tyrosinase; assay type: physicochemical
[20] = molecular target: T1, Tyrosinase (Agaricus bisporus); assay: Inhibition of mushroom tyrosinase-mediated L-tyrosine oxidation at 100 uM after 60 mins by HPLC analysis
[21] = molecular target: T1, Tyrosinase (Agaricus bisporus); assay: Activation of mushroom tyrosinase assessed as oxygen consumption using L-tyrosine substrate after 60 mins
[22] = molecular target: T1, Tyrosinase (Agaricus bisporus); assay: Inhibition of mushroom tyrosinase-mediated oxygen consumption using L-tyrosine substrate after 60 mins
[23] = Drug metabolism assessed as oxidation of the compound at 100 uM after 30 mins by HPLC analysis in the presence of tyrosinase; assay type: physicochemical; conditions: 0.5 h
[24] = molecular target: T1, Tyrosinase (Agaricus bisporus); assay: Activation of mushroom tyrosinase assessed as dopachrome formation after 60 mins by UV-vis spectrophotometric analysis
[25] = molecular target: T1, Tyrosinase (Agaricus bisporus); assay: Inhibition of mushroom tyrosinase-mediated dopachrome formation after 60 mins by UV-vis spectrophotometric analysis
tyrosinase = assay: Drug metabolism assessed as oxidation of the compound at 100 uM after 60 mins by HPLC analysis in the presence of tyrosinase; assay type: physicochemical; conditions: read-out: Drug metabolism
[26] = Drug metabolism assessed as oxidation of the compound at 100 uM by HPLC analysis in the presence of tyrosinase; assay type: physicochemical; conditions: TDE = time-dependent effect
B16-F10 [27] = assay: Cytotoxicity against mouse B16F10 cells assessed as suppression of cell viability at 400 uM after 72 hrs; assay type: cell-based; conditions: b16-f10, 72 h

SMILES: Oc1cc(O)cc(/C=C\c2ccccc2)c1
Activity (B16-F10 [1]): Non-toxic
Activity (B16-F10 [2]): inactive

SMILES: Oc1cc(O)cc(CCc2ccccc2)c1 [DIHYDROPINOSYLVIN]
Activity (B16-F10 [1]): Non-toxic
Activity (B16-F10 [2]): inactive

inhibition [3]: 90%
inhibition [4]: Dose-dependent effect
inhibition [8]: 20%
inhibition [9]: 10%
inhibition [10]: Active
inhibition [11]: Active
inhibition [12]: Active
inhibition [13]: Active
inhibition [14]: Active
inhibition [15]: inactive
Activity [16]: inactive
inhibition [17]: inactive
inhibition [18]: Active
Drug metabolism [19]: Active
inhibition [20]: Active
Activity [21]: Dose-dependent effect
inhibition [22]: inactive
Drug metabolism [23]: Active
Activity [24]: Dose-dependent effect
inhibition [25]: inactive
metabolised at 1 h, 100 µM (tyrosinase): 90%
Drug metabolism [26]: tde
SMILES: Oc1ccc(/C=C/c2cc(O)cc(O)c2)cc1 [RESVERATROL]
Activity (B16-F10 [1]): Non-toxic
Activity (B16-F10 [5]): Active
Activity (B16-F10 [2]): Dose-dependent effect
Activity (B16-F10 [6]): 10%
IC50 (B16-F10 [7]; Mus musculus, B16-F10, 72 h): > 200 µM
Activity (B16-F10 [7]; mouse, b16-f10, 72 h): Dose-dependent effect

SMILES: Oc1cc(O)cc(/C=C/c2ccccc2)c1 [PINOSYLVIN]
Activity (B16-F10 [1]): Non-toxic
Activity (B16-F10 [27]): Toxic
